Assay results as given in paper PMC6874530, “Structural analysis identifies an escape route from the adverse lipogenic effects of liver X receptor ligands” (Communications Biology, 2019).
“And” between values parts separate entries of the source, which are not always exact repeats. Equal entries are not always repeated. Where two headings read alike, the source gives them in different places.

Assays:
[1] = target: T1, LXRβ LBD (Homo sapiens, UniProt P55055); assay: biochemical
T1 sequence (P55055 215-460 limits assumed): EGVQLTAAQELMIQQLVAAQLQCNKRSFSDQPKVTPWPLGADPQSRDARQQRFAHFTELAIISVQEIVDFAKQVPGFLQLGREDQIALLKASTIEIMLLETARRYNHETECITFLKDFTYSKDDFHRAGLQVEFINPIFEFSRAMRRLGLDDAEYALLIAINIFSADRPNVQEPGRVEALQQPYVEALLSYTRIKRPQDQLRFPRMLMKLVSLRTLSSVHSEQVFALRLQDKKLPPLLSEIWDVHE
Text: The compounds were run in triplicate (binding assay) or in quadruplicate (transactivation assay). Standard deviations are indicated for individual experiments run more than once.

[2] = system: Abca1 mRNA in intestine; assay: intestinal Abca1 mRNA induction in C57BL/6 mice (Emax model); type: in vivo, mouse; details: for ED50: Mus musculus
Method: All procedures involving animals were conducted in accordance with accepted standards of good animal practice and approved by the respective local animal ethics committees (Gothenburg region Local Ethics Review Committee on Animal experiments and University of Virginia Animal Care and Use Committee). Male C57BL/6JOlaHsd mice were retrieved from Harlan Laboratories (Horst, The Netherlands) around 7 weeks of age. In the studies with BMS-852907, male 8-week C57BL/6J mice (Jackson Laboratories) were used. Mice were given ad libitum access to water and standard rodent chow during the studies.
Solid compounds were solubilized in PEG400/Ethanol/Solutol/Water solution (36.3/9.1/4.6/50%). Compounds were given daily by oral gavage, 5 ml kg^−1, at doses ranging from 0.1 to 100 μmol kg^−1 of body weight for 4 days. Animals were terminated 3 h after the last dose.
(§1) At termination, the whole-blood volume was drawn from isoflurane-anesthetized mice via an incision in the carotid artery into EDTA blood tubes (S-Monovette®, EDTA KE/1.3 mL, Sarstedt, Nümbrecht, Germany or BD Microtainers®, Benton, Dickinson and Company, Franklin Lakes, New Jersey, USA). Blood samples were placed on ice and centrifuged within an hour (15 min, 2500 × g, 4 °C or 5 min, 16000 × g, 4 °C). The plasma was then dispensed in separate tubes and kept at −80 °C for later analysis of compound concentration and TG levels. For the analysis of intestinal Abca1 transcript levels, a 3–5-mm long segment of the duodenum was excised and cleared from any gut contents. Tissues were instantly snap frozen in liquid nitrogen and stored at −80 °C.
Snap-frozen intestinal tissues were quickly disrupted in QIAzol® (Qiagen, Hilden, Germany) or PureZOL™ (Bio-Rad Laboratories, Hercules, California, USA) by using a bead tissue homogenizer. Lysates were mixed with chloroform and centrifuged at 6000 × g for 15 min at 4 °C. Total RNA was purified from the upper aqueous phase on the ABI PRISM™ 6100 Nucleic Acid PrepStation (Applied Biosystems, Foster City, USA) or by using the RNeasy kit® (QIAGEN Sciences Inc., Germantown, Maryland, USA) including on-column DNase treatment by using the respective manufacturer’s protocol and reagents. Concentration of total RNA was determined on a NanoDrop™ ND-100 Spectrophotometer (Saveen Werner, Lögstrup, Sweden). The RNA templates were transferred to cDNA by reverse transcription by using the High-Capacity cDNA Reverse Transcription Kit (Applied Biosystems, Foster City, USA) according to the manufacturer’s protocol. Mouse ATP-binding cassette subfamily A member 1 (Abca1) was analyzed by using the forward primer 5′-[…]-3′, reverse primer 5′-[…]-3′, and the dual-labeled probe 5′-6FAM-[…]-TAMRA-3′. Mouse ribosomal protein large P0 (Rplp0, 36b4) was analyzed by using the forward primer 5′-[…]-3′, reverse primer 5′-[…]-3′, and the FAM-labeled probe 5′-[…]-TAMRA-3′. In the study with BMS-852907, RT-qPCR reactions were carried out in separate triplicate wells for Abca1 and Rplp0, respectively, by using 20 ng of cDNA template, 385 nM of the above-mentioned primers, and iQ™ SYBR Green Supermix (Bio-Rad, Hercules, California, USA) on a Bio-Rad MyiQ instrument (Bio-Rad, Hercules, California, USA). In the other studies, 400 nM Abca1 forward and reverse primers, 200 nM Abca1 probe, 200 nM Rplp0 forward and reverse primers, and 100 nM Rplp0 probe were mixed with 15 ng of cDNA template and TaqMan™ Gene Expression Master Mix (Applied Biosystems, Foster City, USA). The RT-qPCR reactions were performed on a 7500 Real-time PCR system (Applied Biosystems, Foster City, USA). Cycle threshold values (Ct) were retrieved from the instrument software. Relative changes in mRNA expression were calculated by using the comparative cycle method (2^−ΔΔCt). […]

[3] = target: T2, LXRα (Homo sapiens, UniProt Q13133); assay: Gal4 one hybrid reporter gene (transactivation) assay in U2OS cells, LXRα; type: cell-based; details: for EC50: U2OS cells, Gal4-LXRα LBD, read-out: LXRα transactivation pEC50 (converted); for Emax: U2OS, 40 h, read-out: LXRα transactivation Agonist efficacy, %
T2 construct: expression vectors pSG5-Gal4-LXRα LBD or pSG5-Gal4-LXRβ LBD; expressed in transfected cells; host or cells: U2OS osteosarcoma cells
T2 sequence (Q13133 209-447 limits assumed): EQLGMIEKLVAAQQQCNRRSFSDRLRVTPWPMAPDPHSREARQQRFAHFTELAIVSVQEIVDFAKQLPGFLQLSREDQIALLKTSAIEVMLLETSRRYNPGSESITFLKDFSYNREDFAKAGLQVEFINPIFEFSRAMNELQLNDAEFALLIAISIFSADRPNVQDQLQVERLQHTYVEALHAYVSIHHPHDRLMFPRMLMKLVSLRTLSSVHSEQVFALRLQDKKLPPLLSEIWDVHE
Method: Transactivation assays were performed in U2OS osteosarcoma cells (ATCC, USA). […] Ligands were added at ten different concentrations 2 h post transfection and the luciferase activity was measured after 40 h.

[4] = system: plasma triglycerides; assay: plasma TG induction in C57BL/6 mice vs plasma compound concentration (log-linear model); type: in vivo, mouse; details: for TG induction in plasma m (scaling factor) / TG induction in plasma C2, drug concentration corresponding to a twofold increase in TG levels: (% RSE); for TG induction in plasma Attributed class: mouse, in vivo
Method: Male C57BL/6JOlaHsd mice were retrieved from Harlan Laboratories (Horst, The Netherlands) around 7 weeks of age. […] Mice were given ad libitum access to water and standard rodent chow during the studies.
Compounds were given daily by oral gavage, 5 ml kg^−1, at doses ranging from 0.1 to 100 μmol kg^−1 of body weight for 4 days. Animals were terminated 3 h after the last dose.
as §1
Plasma triglyceride levels were analyzed by using the Triglycerides/Glycerol Blanked reagent kit (Roche Diagnostics GMBH, Mannheim, Germany). Samples were measured on an ABX Pentra 400 instrument (Horiba Medical, Irvine, California, USA) or Cobas Mira plus instrument (Roche Diagnostics Corporation, Indianapolis, USA). […] Absorbance was measured by using a Tecan Infinite M200 plate reader (Tecan Austria GmbH, Salzburg, Austria).
About 25 µL of plasma was precipitated with 150 µL of cold acetonitrile containing 0.2% formic acid. […] Sample analysis was performed by using a reversed-phase high-pressure liquid chromatography system coupled to a Quattro Ultima triple-quadrupole mass spectrometer (Waters, UK). A rapid 2-min 4–90% (vol/vol) acetonitrile (containing 0.2% formic acid) gradient was used for chromatographic separation.
To rank the compounds, the drug concentration (C2) needed to generate a twofold increase in plasma TG was estimated by rearranging Eq. (2):3 C2=exp^2fold−BL−1/m^1/γ

[5] = Receptor-binding affinity pKi LXRβ, value (SD, n independent experiments)
[6] = binding affinity to the LXRβ LBD
[7] = po, read-out: Abca1 mRNA induction in intestine Attributed class
[8] = oral gavage daily for 4 days, C57BL/6 mice, (% RSE), read-out: Abca1 mRNA induction in intestine ED50
[9] = maximal activation compared with a reference full agonist, value (SD, n)

| Structure (SMILES) | Ki [1, 5] [nM] | Ki [1, 6] [nM] | ED50 [2, 7] [µmol/kg] | ED50 [2, 8] [µmol/kg] | agonist activity in the Gal4 reporter gene assay, LXRα [3] | TG class [4] | TG induction in plasma m (scaling factor) [4] | TG induction in plasma Attributed class [4] | TG induction in plasma C2, drug concentration corresponding to a twofold increase in TG levels [4] | EC50 ([3]; value (SD, n)) [nM] | Emax [3, 9] [%] | class of intestinal Abca1 induction [2] | LXRα transactivation Agonist efficacy, % [3, 9] | Ki [1] [nM] | trend in plasma TG levels ([4]; within the explored concentration range) | Potency-based LXRα selectivity over LXRβ ([3]; Gal4 reporter gene assays) [fold] |
| --- | --- | --- | --- | --- | --- | --- | --- | --- | --- | --- | --- | --- | --- | --- | --- | --- |
| CC(C)(O)c1cn(-c2ccc(-c3cc(F)c(CO)c(S(C)(=O)=O)c3)cc2F)c(C(C)(C)c2c(Cl)cccc2Cl)n1 [BMS-852927] | 2.63 | 3 | ≤ 11.3 | 2.1 | No signal was observed | non-lipogenic | 0.066 (18) | Non-lipogenic | 477 μM and 477 (35) μM | – | – | – | – | – | – | – |
| CC(C)(C)N1C(=O)C(NC2CCN(c3ncc(CC(=O)O)cc3Cl)CC2)=C(c2ccccc2)S1(=O)=O [AZ4] | 33.1 | – | ≤ 11.3 | 5.65 | – | – | 1.47 (28) | – | 1.35 (54) μM | 427 | 103 | – | – | – | – | – |
| CC(C)N1C(=O)C(NC2CCN(c3ncc(CC(=O)O)cc3Cl)CC2)=C(c2ccccc2)S1(=O)=O [AZ6] | 162 | – | ≤ 11.3 | 11.3 | – | – | – | Non-lipogenic | – | 1230 | 87.8 | high ABCA1 inducers | – | – | – | – |
| O=C(O)Cc1cccc(OCCCN(Cc2cccc(C(F)(F)F)c2Cl)CC(c2ccccc2)c2ccccc2)c1 [GW3965, reference compound] | 24 | – | ≤ 11.3 | 0.969 | – | non-lipogenic | 0.244 (18) | Non-lipogenic | 40.2 μM and 40.2 (33) μM | 1100 | 93.5 | – | – | – | – | – |
| CN(C)C(=O)c1cnc(N2CC[C@@H](CNC3=C(c4ccccc4)S(=O)(=O)N(C(C)(C)C)C3=O)C2)c(Cl)c1 [AZ5] | 77.6 | – | > 11.3 | 17.2 | – | – | – | – | – | 1070 | 60.5 | low ABCA1 inducers | – | – | – | – |
| O=S(=O)(c1ccccc1)N(CC(F)(F)F)c1ccc(C(O)(C(F)(F)F)C(F)(F)F)cc1 [T0901317, reference compound] | – | – | ≤ 11.3 | 4.11 | – | – | 0.784 (17) | Lipogenic | 4.41 (33) μM | – | – | – | 100.8 (7.4, n = 4) % | – | – | – |
| CC(C)N1C(=O)C(NCCCCc2cccc(S(N)(=O)=O)n2)=C(c2ccccc2)S1(=O)=O [AZ3] | 17.4 | 4 | ≤ 11.3 | 1.49 | – | – | 0.897 (20) | – | 3.42 (38) μM | 813 | 142 | – | – | – | – | – |
| CC(C)(C)N1C(=O)C(Cc2ccccc2)=C(NC2CCN(c3ncc(CC(=O)O)cc3Cl)CC2)C1=O [AZ7] | 105 | – | ≤ 11.3 | < 30 | – | – | – | Non-lipogenic | – | 1100 | 85.3 | high ABCA1 | – | – | – | – |
| Fc1ccc(-c2c3cccc(C(F)(F)F)c3nn2Cc2ccc(F)cc2Cl)cc1 [LXR-623, reference compound] | – | – | > 11.3 | 31.5 | – | non-lipogenic | – | Non-lipogenic | – | 2570 | 102 | low ABCA1 inducers | – | 95.5 | no trends toward increased TG levels | – |
| CN(C)C(=O)c1cccc(CCCCNC2=C(c3ccccc3)S(=O)(=O)N(C(C)(C)C)C2=O)c1 [AZ1] | 2.51 | 2 | ≤ 11.3 | < 30 | – | – | 3.88 (30) | Lipogenic | 0.214 (58) μM | 110 | 102 | high ABCA1 | – | – | – | – |
| O=C(O)Cc1ccc(CNC(=O)[C@@H]2Cc3ccccc3N2S(=O)(=O)c2ccc(-c3ccccc3C(F)(F)F)cc2)cc1 [F1, reference compound] | 36.3 | – | ≤ 11.3 | < 30 | – | – | 12.1 (38) | Lipogenic | 0.025 (72) μM | 562 | 84 | high ABCA1 | – | – | – | 7 |
| CC(CCCc1cccc(S(N)(=O)=O)n1)NC1=C(c2ccccc2)S(=O)(=O)N(C(C)C)C1=O (centres unmarked) [AZ2] | 3.72 | – | ≤ 11.3 | 9.64 | – | – | 9.28 (63) | – | 0.041 (120) μM | 77.6 | 111 | – | – | – | – | – |
